# Measured values from patent US12492199B2, “Pyridopyrimidines as histamine H4-receptor inhibitors” (FAES FARMA, S.A., priority 2018, dated 2025).
# Where two headings read alike, the source gives them in different places.
# Columns and labels:
# [1] = target: human H1 receptor (Homo sapiens (Human), UniProt P35367); assay: H1 Binding assay ([3H]pyrilamine competition, membranes from CHO-K1 cells transfected with human H1 receptor); settings: affinity for human histamine H1 receptor, class symbols; — not defined in key; read-out: ACTIVITY CLASS hH1R (Ki)
# Description: Cetirizine and pyrilamine were supplied by Sigma-Aldrich. Bilastine was synthetized at FAES FARMA facilities (Lamiako-Leioa, Spain), chemical reagents such as Na2HPO4, KH2PO4 or polyvinylpyrrolidone as well as multiscreen microplates (MSFBN6B50) were purchased from Merck Millipore, scintillation liquid (Microscint 20), human H1 membranes (ES-390-M400UA) and ^3H-pirilamina (NET 594) were provided by PerkinElmer.
# Affinity for histamine H1-receptor was determined by H1 Binding assay: • Membranes form CHO-K1 cells transfected with human H1 receptor and microplates of 96-well format were used. • For competition studies cell membranes were homogenated in 50 mM phosphate buffer (Na2HPO4 and KH2PO4 mixed to pH 7.4 at 25° C.) and added to the microplate at the concentration of approximately 5 μg/well. […] Non specific binding was defined using 10 μM unlabeled pyrilamine and the total incubation volume was 275 μl per well. • Incubations were performed until gentle agitation at 25° C. for 60 min and concluding with a rapid vacuum filtration using pre-soaked filters (5% polyvinylpyrrolidone). After ten rapid washes with cold wash buffer (50 mM phosphate buffer) the filter plates were dried at room temperature for 30 min. • Finally, scintillation liquid (Microscint 20) was added to the whole microplate in order to measure the radioactivity retained on the filters using an specific scintillation counter (Top Count—NXT). Curve analysis and values of IC50 were determined using Grap Pad Prism program (GraphPad Software, San Diego, USA). • Test compounds were initially evaluated at one concentration (1 μM) and thereafter if significant displacement was observed (>40%) a concentration-response curve was conducted. Each test concentration was measured in triplicate. • As reference compounds pyrilamine, cetirizine and Bilastine were used.
# [2] = target: human H4 receptor (Homo sapiens (Human), UniProt Q9H3N8); assay: H4 Binding assay ([3H]histamine competition, membranes from CHO-K1 cells transfected with human H4 receptor)
# Description: Affinity for histamine H4-receptor was determined by H4 Binding assay:
# • Membranes from CHO-K1 cells transfected with human H4 receptor and microplates of 96-well format were used. • For competition studies cell membranes were homogenated in Tris-HCl 50 mM, EDTA 5 mM, pH 7.4 and added to the microplate at the concentration of approximately 15 μg/well. […] Non specific binding was defined using 10 μM unlabeled histamine and the total incubation volume was 275 μl per well. • Incubations were performed under gentle agitation at 25° C. for 60 min and concluding with a rapid vacuum filtration using pre-soaked filters (0.5% polyethylenimine). After ten rapid washes with cold wash buffer (50 mM Tris-HCl buffer) the filter plates were dried at room temperature for 30 min. • Finally, scintillation liquid (Microscint 20) was added to the whole microplate in order to measure the radioactivity reattained on the filters using a specific scintillation counter (Top Count—NXT). […] H1 Binding Assay Materials
# [3] = affinity for human histamine H4 receptor, class symbols, read-out: ACTIVITY CLASS hH4R (Ki)
# Sequence of human H1 receptor (P35367 whole entry): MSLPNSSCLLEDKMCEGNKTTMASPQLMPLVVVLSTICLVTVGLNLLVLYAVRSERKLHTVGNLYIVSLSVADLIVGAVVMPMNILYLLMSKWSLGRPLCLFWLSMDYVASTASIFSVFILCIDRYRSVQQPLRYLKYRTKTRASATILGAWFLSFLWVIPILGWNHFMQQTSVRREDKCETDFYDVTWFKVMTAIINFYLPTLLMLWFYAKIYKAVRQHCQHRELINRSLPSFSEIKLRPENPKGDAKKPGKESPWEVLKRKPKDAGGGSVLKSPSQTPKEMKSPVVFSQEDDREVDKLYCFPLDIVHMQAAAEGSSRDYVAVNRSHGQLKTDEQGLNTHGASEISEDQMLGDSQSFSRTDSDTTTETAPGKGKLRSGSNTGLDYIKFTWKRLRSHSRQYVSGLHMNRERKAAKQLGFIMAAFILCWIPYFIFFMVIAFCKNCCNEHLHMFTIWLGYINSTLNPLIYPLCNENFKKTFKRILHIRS
Compound,Ki [1] [nM],"Ki [2, 3] [nM]",further results
"Clc1cc2c(NCc3ccco3)nc(N3CCNCC3)nc2cn1 [Example 25, 6-chloro-N-(furan-2-ylmethyl)-2-(piperazin-1-yl)pyrido[3,4-d]pyrimidin-4-amine]",< 1000,< 1000,–
"CN1CCN(c2nc(NCc3ccsc3)c3cc(Cl)ncc3n2)CC1 [Example 5, 6-chloro-2-(4-methylpiperazin-1-yl)-N-(thiophen-3-ylmethyl)pyrido[3,4-d]pyrimidin-4-amine]",< 1000,< 1000,–
"CC(C)c1cc2c(NCCS(=O)(=O)Nc3ccccc3)nc(N3CCN(C)CC3)nc2cn1 [Example 54, 2-((6-isopropyl-2-(4-methylpiperazin-1-yl)pyrido[3,4-d]pyrimidin-4-yl)amino)-N-phenylethane-1-sulfonamide]",< 1000,< 100,–
"Cc1cc2c(NCc3cccs3)nc(N3CCNCC3)nc2cn1 [Example 60, 6-methyl-2-(piperazin-1-yl)-N-(thiophen-2-ylmethyl)pyrido[3,4-d]pyrimidin-4-amine]",< 1000,< 1000,–
"CN1CCN(c2nc(NCCS(=O)(=O)Cc3ccccc3)c3cc(Cl)ncc3n2)CC1 [Example 94, N-(2-(benzylsulfonyl)ethyl)-6-chloro-2-(4-methylpiperazin-1-yl)pyrido[3,4-d]pyrimidin-4-amine]",< 1000,< 100,–
"CCCc1cc2c(NCc3cccs3)nc(N3CCN(C)CC3)nc2cn1 [Example 49, 2-(4-methylpiperazin-1-yl)-6-propyl-N-(thiophen-2-ylmethyl)pyrido[3,4-d]pyrimidin-4-amine]",< 1000,< 1000,–
"Cc1ccc(CNc2nc(N3CCN(C)CC3)nc3cnc(Cl)cc23)s1 [Example 69, 6-chloro-2-(4-methylpiperazin-1-yl)-N-((5-methylthiophen-2-yl)methyl)pyrido[3,4-d]pyrimidin-4-amine]",< 1000,< 1000,–
"CN1CCN(c2nc(NCc3ccco3)c3cc(Cl)ncc3n2)CC1 [Example 4, 6-chloro-N-(furan-2-ylmethyl)-2-(4-methylpiperazin-1-yl)pyrido[3,4-d]pyrimidin-4-amine]",< 1000,< 100,–
"CN1CCN(c2nc(NCCS(=O)(=O)Nc3cccc(Cl)c3)c3cc(Cl)ncc3n2)CC1 [Example 76, 2-((6-chloro-2-(4-methylpiperazin-1-yl)pyrido[3,4-d]pyrimidin-4-yl)amino)-N-(3-chlorophenyl)ethane-1-sulfonamide]",–,< 100,–
"Cc1cc2c(NCc3cccs3)nc(N3CCN(C)CC3)nc2cn1 [Example 46, 6-methyl-2-(4-methylpiperazin-1-yl)-N-(thiophen-2-ylmethyl)pyrido[3,4-d]pyrimidin-4-amine]",–,< 1000,–
"Cc1cccc(NS(=O)(=O)CCNc2nc(N3CCN(C)CC3)nc3cnc(Cl)cc23)c1 [Example 79, 2-((6-chloro-2-(4-methylpiperazin-1-yl)pyrido[3,4-d]pyrimidin-4-yl)amino)-N-(m-tolyl)ethane-1-sulfonamide]",–,< 100,–
"O=S(=O)(CCNc1nc(N2CCNCC2)nc2cnc(Cl)cc12)N1CCOCC1 [Example 28, 6-chloro-N-(2-(morpholinosulfonyl)ethyl)-2-(piperazin-1-yl)pyrido[3,4-d]pyrimidin-4-amine]",–,< 100,–
"CCCCNc1nc(N2CCN(C)CC2)nc2cnc(Cl)cc12 [Example 22, N-butyl-6-chloro-2-(4-methylpiperazin-1-yl)pyrido[3,4-d]pyrimidin-4-amine]",–,< 1000,–
"CN1CCN(c2nc(NCCS(=O)(=O)N3CCOCC3)c3cc(Cl)ncc3n2)CC1 [Example 18, 6-chloro-2-(4-methylpiperazin-1-yl)-N-(2-(morpholinosulfonyl)ethyl)pyrido[3,4-d]pyrimidin-4-amine]",–,< 100,–
"Cc1ccccc1NS(=O)(=O)CCNc1nc(N2CCN(C)CC2)nc2cnc(Cl)cc12 [Example 73, 2-((6-chloro-2-(4-methylpiperazin-1-yl)pyrido[3,4-d]pyrimidin-4-yl)amino)-N-(o-tolyl)ethane-1-sulfonamide]",–,< 100,–
"CN1CCN(c2nc(NCCS(=O)(=O)N(C)c3ccccc3)c3cc(Cl)ncc3n2)CC1 [Example 17, 2-((6-chloro-2-(4-methylpiperazin-1-yl)pyrido[3,4-d]pyrimidin-4-yl)amino)-N-methyl-N-phenylethane-1-sulfonamide]",< 1000,< 100,–
"CC(C)c1cc2c(NCc3ccco3)nc(N3CCN(C)CC3)nc2cn1 [Example 51, N-(furan-2-ylmethyl)-6-isopropyl-2-(4-methylpiperazin-1-yl)pyrido[3,4-d]pyrimidin-4-amine]",–,< 1000,–

# Second part, led by results:
Ki [1] [nM],"Ki [2, 3] [nM]",Compound,further results
< 1000,< 100,"CN1CCN(c2nc(NCc3cccs3)c3cc(Cl)ncc3n2)CC1 [Example 3, 6-chloro-2-(4-methylpiperazin-1-yl)-N-(thiophen-2-ylmethyl)pyrido[3,4-d]pyrimidin-4-amine]","IC50 ([2]; histamine H4 receptor binding): 1.74 nM; inhibition at 1 µM ([2]; histamine H4 receptor binding, compounds initially evaluated at 1 μM): 94%; Ki ([2]; histamine H4 receptor, comparative compounds, read-out: Ki): 0.75 nM"
< 1000,< 100,"CN1CCN(c2nc(NCCS(=O)(=O)Nc3ccccc3Cl)c3cc(Cl)ncc3n2)CC1 [Example 72, 2-((6-chloro-2-(4-methylpiperazin-1-yl)pyrido[3,4-d]pyrimidin-4-yl)amino)-N-(2-chlorophenyl)ethane-1-sulfonamide]",–
< 1000,< 1000,"Cc1ccsc1CNc1nc(N2CCN(C)CC2)nc2cnc(Cl)cc12 [Example 68, 6-chloro-2-(4-methylpiperazin-1-yl)-N-((3-methylthiophen-2-yl)methyl)pyrido[3,4-d]pyrimidin-4-amine]",–
< 1000,< 100,"COc1ccccc1NS(=O)(=O)CCNc1nc(N2CCN(C)CC2)nc2cnc(Cl)cc12 [Example 74, 2-((6-chloro-2-(4-methylpiperazin-1-yl)pyrido[3,4-d]pyrimidin-4-yl)amino)-N-(2-methoxyphenyl)ethane-1-sulfonamide]",–
–,< 100,"CSc1cccc(NS(=O)(=O)CCNc2nc(N3CCN(C)CC3)nc3cnc(Cl)cc23)c1 [Example 81, 2-((6-chloro-2-(4-methylpiperazin-1-yl)pyrido[3,4-d]pyrimidin-4-yl)amino)-N-(3-(methylthio)phenyl)ethane-1-sulfonamide]",–
–,< 100,"CN1CCN(c2nc(NCCS(=O)(=O)NCc3ccccn3)c3cc(Cl)ncc3n2)CC1 [Example 88, 2-((6-chloro-2-(4-methylpiperazin-1-yl)pyrido[3,4-d]pyrimidin-4-yl)amino)-N-(pyridin-2-ylmethyl)ethane-1-sulfonamide]",–
–,< 1000,"CNC(=O)CCNc1nc(N2CCN(C)CC2)nc2cnc(Cl)cc12 [Example 98, 3-((6-chloro-2-(4-methylpiperazin-1-yl)pyrido[3,4-d]pyrimidin-4-yl)amino)-N-methylpropanamide]",–
< 1000,< 100,"CN1CCN(c2nc(NCC[S+]([O-])Cc3ccccc3)c3cc(Cl)ncc3n2)CC1 (centres unmarked) [Example 95, N-(2-(benzylsulfinyl)ethyl)-6-chloro-2-(4-methylpiperazin-1-yl)pyrido[3,4-d]pyrimidin-4-amine]",–
< 1000,< 100,"Clc1cc2c(NCc3cccs3)nc(N3CCNCC3)nc2cn1 [Example 24, 6-chloro-2-(piperazin-1-yl)-N-(thiophen-2-ylmethyl)pyrido[3,4-d]pyrimidin-4-amine]",–
–,< 100,"CNS(=O)(=O)CCNc1nc(N2CCN(C)CC2)nc2cnc(Cl)cc12 [Example 14, 2-((6-chloro-2-(4-methylpiperazin-1-yl)pyrido[34-d]pyrimidin-4-yl)amino)-N-methylethane-1-sulfonamide]",–
< 1000,< 100,"CN1CCN(c2nc(NCCS(=O)(=O)c3ccccc3)c3cc(Cl)ncc3n2)CC1 [Example 93, 6-chloro-2-(4-methylpiperazin-1-yl)-N-(2-(phenylsulfonyl)ethyl)pyrido[3,4-d]pyrimidin-4-amine]",–
